Experimental data reported in patent US20160251342A1, “ALDEHYDE DERIVATIVE OF SUBSTITUTED OXAZOLIDINONES” (WANBURY LTD., priority 2012, published 2016).

Assays:
[1] = In vitro liver microsomal stability assay, human; assay type: in vitro ADME; conditions: human microsomes
Description: (§1) Liver microsomal stability assays are conducted at 1 mg per mL liver microsome protein with an NADPH in phosphate buffer (100 mM, pH 7.4). Test compounds (compound of formula B of the invention) are prepared as solutions in 20% methanol-water and added to the assay mixture (final assay concentration 1 μM) and incubated at 37° C. Aliquots (100 .μ.L) are taken out at times 0, 15, and 30 minutes, and diluted with ice cold acetonitrile containing IS (200 µL) to stop the reactions. Samples are centrifuged at 10,000 RPM for 5 minutes to precipitate proteins. Supernatants are transferred to micro centrifuge tubes and stored at −20° C. for analysis of LC/MS/MS. The percent parent remaining of the test substance is calculated as Ratio of peak area at each time point to peak area ratio at zero min, multiplied by 100. The compound formula (B) is converted to Rivaroxaban in microsomal assay.

[2] = In vitro liver microsomal stability assay, rat; assay type: in vitro ADME; conditions: rat microsomes
Description: as §1

thrombus formation [3] = experiment: Arteriovenous shunt model (rat); assay type: in vivo, rats (strain: Wistar); conditions: for ED50: Rattus norvegicus, arteriovenous shunt, read-out: ED-50 to inhibit the thrombus formation
Source text: Fasting male rats (strain: Wistar) having a weight of 280-320 g were anaesthetized using a isoflurane/oxygen. Thrombus formation was initiated in an arteriovenous shunt in accordance with the method described by Christopher N. Berry et al., Br. J. Pharmacol. (1994), 113, 1209-1214. To this end, the left jugular vein and the right carotid artery were exposed. The two vessels were connected by an extracorporeal shunt using a 10 cm long Poly Vinyl Chloride tube (.P.V.C.) 9 internal diameter i.d. 0.5 mm), in middle of PVC tubing a 5 cm Scalp vein tube (i.d. 1.5 mm) will be attached which contained a 3 cm long roughened surface nylon thread which will be arranged to form a loop to form a thrombogenic surface. The extracorporeal circulation was maintained for 15 minutes. The shunt was then removed and the nylon thread with the thrombus was weighed immediately. The weight of the nylon thread on its own had been determined before the experiment was started. Before the extracorporeal circulation was set up, The test item [compound formula (B) (Wanxaban)/reference item (Rivaroxaban)/vehicle will be administered to the animals as per routes preferred. Animals were grouped by body weight stratification and randomization (Represented by G1-[…]). The grouping was done one day prior to the experiment initiation.

thrombus formation [4] = experiment: Venous thrombosis model (rat); assay type: in vivo, rats (strain: Wistar); conditions: for Mean thrombus weight (mg) (±SEM): per oral 120 minutes before induction, vehicle 4.36 ± 0.58
Description: Male fasting rats (strain: Wistar) having a weight 280-320 g were anaesthetized using isoflurane/oxygen. The left jugular vein was exposed (about 2 cm). The formation of a venous thrombus was induced by mechanical injury to the blood vessel in accordance with the method described by K. Meng, et al., Naunyn-Schmiedeberg's Arch. Pharmacol. (1977), 301, 115-119. To this end, the jugular vein was clamped from the blood flow, cooled to -12° C. in a metal trough for 2 minutes and, to standardize the size of the thrombi, simultaneously compressed using a weight of 200 g. The blood flow was re-opened and the wound was closed. After 4 hours, the wound was re-opened to remove the thrombi from the injured sections of the vessel. The moist weight of the thrombi was determined immediately. […] Animals were grouped by body weight stratification and randomization (Represented by G12-[…]). The grouping was done one day prior to the experiment initiation.

[5] = In vitro stability in mouse plasma (LC-MS); assay type: in vitro ADME
Description: The final concentration of the test compound in the assay is 5 micromolar. […] C. The 100 microlitres of aliquot at time point was removed and diluted with ice cold acetonitrile containing IS (200 µL) to stop the reactions. Samples are centrifuged at 10,000 RPM for 5 minutes to precipitate proteins. Supernatants are transferred to micro centrifuge tubes and stored at −20° C. for analysis of LC/MS/MS. The percent parent remaining of the test substance is calculated as ratio of peak area at each time point to peak area ratio at zero min, multiplied by 100.
API 4000, ESI Agilent 1100 column: Gemini Nx 100 mm×4.6 mm 5.μ; column temperature: 30° C.; eluent A: 0.1% formic acid in water, eluent B: acetonitrile; gradient: 0-2.5 min 95% A, 5% B; 2.5-2.6 min 5% A, 95% B; 2.6-4.2 min 95% A, 5% B; flow rate: 0.8 ml/min; ESI. Q1:464.098, Q3:144.255

[6] = In vitro liver microsomal stability assay, mouse; assay type: in vitro ADME; conditions: mouse microsomes
Description: as §1

thrombus formation [7] = experiment: Arterial thrombosis model (rat); assay type: in vivo, rats (strain: Wistar); conditions: for ED50: Rattus norvegicus, arterial thrombosis, read-out: ED-50 to inhibit the thrombus formation
Description: Male fasting rats (strain: Wistar) having a weight 280-320 g were anaesthetized using isoflurane/oxygen. The left carotid artery was exposed (about 2 cm). The formation of an arterial thrombus was induced by mechanical injury to the blood vessel in accordance with the method described by K. Meng et al., Naunyn-Schmiedeberg's Arch. Pharmacol. (1977), 301, 115-119. To this end, the exposed carotid artery was clamped from the blood flow, cooled to -20° C. in a metal trough for 2 minutes and, to standardize the size of the thrombi, simultaneously compressed using a weight of 200 g. […] The proximal clamp was removed, and the wound was closed and re-opened after 2 hours to remove the injured section of the vessel. The section of the vessel was opened longitudinally and the thrombus was removed from the injured section of the vessel. The moist weight of the thrombi was determined immediately. […] Animals were grouped by body weight stratification and randomization (Represented by G1-[…]). The grouping was done one day prior to the experiment initiation.

## O=CN(C[C@H]1CN(c2ccc(N3CCOCC3=O)cc2)C(=O)O1)C(=O)c1ccc(Cl)s1 [compound formula (B), 5-chloro-N-formyl-N-({(5S)-2-oxo-3-[4-(3-oxomorpholin-4-yl)phenyl]-1,3-oxazolidin-5-yl}methyl)thiophene-2-carboxamide]
[1]
  Amount of test product detected (metabolised to rivaroxaban from zero min): Neglible
[2]
  Amount of test product detected (metabolised to rivaroxaban from zero min): min. Neglible
Thrombus formation [3]; intravenous
  ED50: 1 mg/kg
Thrombus formation [3]; per oral
  ED50: 22.8 mg/kg
Thrombus formation [3]; intravenous, Dose 0.5, vehicle 27.26 ± 1.23
  Mean thrombus weight (mg) (±SEM): 18.7 ± 1.22 mg
Thrombus formation [3]; intravenous, Dose 1, vehicle 27.26 ± 1.23
  Mean thrombus weight (mg) (±SEM): 13.99 ± 2 mg
Thrombus formation [3]; intravenous, Dose 2, vehicle 27.26 ± 1.23
  Mean thrombus weight (mg) (±SEM): 8.45 ± 0.75 mg
Thrombus formation [3]; intravenous, Dose 3, vehicle 27.26 ± 1.23
  Mean thrombus weight (mg) (±SEM): 5.83 ± 0.31 mg
Thrombus formation [3]; intravenous, Dose 4, vehicle 27.26 ± 1.23
  Mean thrombus weight (mg) (±SEM): 4.81 ± 0.31 mg
Thrombus formation [3]; per oral, Dose 2.5, vehicle 26.95 ± 1.23
  Mean thrombus weight (mg) (±SEM): 3.81 ± 1.55 mg
Thrombus formation [3]; per oral, Dose 5, vehicle 26.95 ± 1.23
  Mean thrombus weight (mg) (±SEM): 1.60 ± 0.10 mg
Thrombus formation [3]; per oral, Dose 10, vehicle 26.95 ± 1.23
  Mean thrombus weight (mg) (±SEM): 0.66 ± 0.09 mg
Thrombus formation [3]; per oral, Dose 15, vehicle 26.95 ± 1.23
  Mean thrombus weight (mg) (±SEM): 0.53 ± 0.18 mg
Thrombus formation [3]; per oral, Dose 20, vehicle 26.95 ± 1.23
  Mean thrombus weight (mg) (±SEM): 0.62 ± 0.16 mg
Thrombus formation [4]; Rattus norvegicus, venous thrombosis, per oral, read-out: ED-50 to inhibit the thrombus formation
  ED50: 1.9 mg/kg
Thrombus formation [4]; Dose 2.5
  Mean thrombus weight (mg) (±SEM): 3.81 ± 1.55 mg
Thrombus formation [4]; Dose 5.0
  Mean thrombus weight (mg) (±SEM): 1.60 ± 0.10 mg
Thrombus formation [4]; Dose 10
  Mean thrombus weight (mg) (±SEM): 0.66 ± 0.09 mg
Thrombus formation [4]; Dose 15
  Mean thrombus weight (mg) (±SEM): 0.53 ± 0.18 mg
Thrombus formation [4]; Dose 20
  Mean thrombus weight (mg) (±SEM): 0.62 ± 0.16 mg
[5]
  Amount of test product detected (conversion to rivaroxaban from zero min): min. Neglible
[6]
  Amount of test product detected (metabolised to rivaroxaban from zero min): min. Neglible
Thrombus formation [7]; intravenous
  ED50: 0.5 mg/kg
Thrombus formation [7]; per oral
  ED50: 4 mg/kg
Thrombus formation [7]; intravenous 5 minutes before induction, Dose 0.5, vehicle 2.08 ± 0.47
  Mean thrombus weight (mg) (±SEM): 1.32 ± 0.17 mg
Thrombus formation [7]; intravenous 5 minutes before induction, Dose 1, vehicle 2.08 ± 0.47
  Mean thrombus weight (mg) (±SEM): 0.60 ± 0.09 mg
Thrombus formation [7]; intravenous 5 minutes before induction, Dose 2, vehicle 2.08 ± 0.47
  Mean thrombus weight (mg) (±SEM): 0.61 ± 0.09 mg
Thrombus formation [7]; intravenous 5 minutes before induction, Dose 3, vehicle 2.08 ± 0.47
  Mean thrombus weight (mg) (±SEM): 0.47 ± 0.05 mg
Thrombus formation [7]; intravenous 5 minutes before induction, Dose 4, vehicle 2.08 ± 0.47
  Mean thrombus weight (mg) (±SEM): 0.36 ± 0.03 mg
Thrombus formation [7]; per oral 120 minutes before induction, Dose 2.5, vehicle 1.70 ± 0.39
  Mean thrombus weight (mg) (±SEM): 1.15 ± 0.13 mg
Thrombus formation [7]; per oral 120 minutes before induction, Dose 5.0, vehicle 1.70 ± 0.39
  Mean thrombus weight (mg) (±SEM): 0.71 ± 0.04 mg
Thrombus formation [7]; per oral 120 minutes before induction, Dose 10, vehicle 1.70 ± 0.39
  Mean thrombus weight (mg) (±SEM): 0.78 ± 0.14 mg
Thrombus formation [7]; per oral 120 minutes before induction, Dose 15, vehicle 1.70 ± 0.39
  Mean thrombus weight (mg) (±SEM): 0.58 ± 0.11 mg
Thrombus formation [7]; per oral 120 minutes before induction, Dose 20, vehicle 1.70 ± 0.39
  Mean thrombus weight (mg) (±SEM): 0.44 ± 0.04 mg
